≈ marks a conversion by molar mass, not a printed value. Where two headings read alike, the source gives them in different places.

Data set [1] is described as follows: LogD7.4 shake flask (octanol/phosphate buffer). Type of data set: physicochemical. The note with it: octanol/potassium phosphate buffer, pH 7.4. An excerpt:
The modulation of lipophilicity could play a critical role in optimizing PROTACs. We thus utilized traditionally measured LogD values from shake flask experiments alongside chromatographically assessed ChromLogD values.[72] […] By incorporating ferrocene, permeability may be improved due to the feature of promoting IMHB-mediated compact conformations, while also balancing the lipophilicity of the polar ligand/PEG linkers. However, while sufficient lipophilicity is required for passive uptake over the cell membrane, it may also drive poor aqueous solubility.[73]
(§1) For the permeabilised-cell assay, 10 µL of digitonin was added, and plates were incubated in darkness for 5 minutes to allow permeabilisation. In each well 10 µL of the 10x PROTAC and vehicle control dilutions were dispensed. A 100x NanoBRET tracer solution (50 µM for VHL permeabilised-cell assay) was prepared with 100% DMSO, then diluted to a 20x solution with tracer dilution buffer. A 5 µL volume of tracer was dispensed into each well at a final concentration of 0.5 µM, and the plate was mixed at 300 RPM for 15 seconds. Finally, 50 µL of a 3x substrate solution (8.8 µL NanoBRET Nano-Glo substrate and 3,500 µL Opti-MEM) was added, and plates were incubated for 1 minute at room temperature before reading on a GloMax Discover as […]
HiBiT Lytic Assay with Zosuquidar Co-treatment […]
Luminescence was measured using the GloMax® Multiplex Luminescence and Fluorescence Protocol for 96-well plates. The luminescence signal for each well was normalised to the fluorescence signal and further normalised to the mean values from iPrOH-treated controls, then expressed as a ratio relative to the vehicle control. Curve fitting and DC50 values were determined in GraphPad Prism v.10.0.3 using nonlinear regression with a three-parameter logistic model to calculate DC50 values. […]
(§2) of 1 mL/min and a column temperature of 40 °C. […] Data were analysed with Shimadzu Open Solution Data Browser to obtain the RTs of the peak for each individual compound and standards. […]
ChromLogD values for the compounds were then calculated based on the regression curve. […]

Data set [2] can be described thus: Kinetic solubility in phosphate buffer and FeSSIF. The format is physicochemical. The note with it: kinetic from iPrOH stock. Here is the method:
Solubility in Phosphate Buffer and Fed State Simulated Intestinal Fluid (FeSSIF) 8 µL of reference or test compound stock solution (10 mM in iPrOH) was added to 792 μL of 100 mM phosphate buffer (pH 7.4) or FeSSIF (pH 5.8). The resulting mixture was shaken for 1 h (1000 rpm) at room temperature and then centrifuged for 10 min (12 000 rpm) to remove the undissolved particles. The supernatant was collected and diluted 10 times and 100 times separately with 100 mM phosphate buffer or FeSSIF. Five microliters of the supernatant samples (no diluted, 10 times diluted, 100 times diluted) were mixed with 95 μL of acetonitrile (containing internal standard) separately before injecting into LC-MS/MS for analysis. […]

Data set [3] can be described thus: ChromLogD (chromatographic). The format is physicochemical. The note with it: HPLC on Hypersil GOLD-C18 column, pH 7.4. How it is done:
as §1
HiBiT Lytic Assay with Zosuquidar Co-treatment
A modified HiBiT lytic assay was used to assess the activity of zosuquidar on the BET degradation. […]
Luminescence was measured using the GloMax® Multiplex Luminescence and Fluorescence Protocol for 96-well plates. The luminescence signal for each well was normalised to the fluorescence signal and further normalised to the mean values from iPrOH-treated controls, then expressed as a ratio relative to the vehicle control. Curve fitting and DC50 values were determined in GraphPad Prism v.10.0.3 using nonlinear regression with a three-parameter logistic model to calculate DC50 values.
The stock solution of each test item was prepared from a 10mM stock in iPrOH, which was further diluted 1:50 with […] to obtain a 0.2 mM solution (4 µL of the test item stock solution is diluted with 196 µL DMSO) in insert vials. The samples were analysed on an HPLC system equipped with a HPLC-ThermoScientific Hypersil GOLD-C18 column (2.1 x 50 mm, 1.9 µm) and by MS detection using electrospray ionization (ESI) and Atmospheric Pressure Chemical Ionization (APCI) on a Shimadzu LCMS 2050. […]
as §2

For another data set, the system named is HEK293 cells. Nature of the data set: Cell viability assay (CellTiter-Glo). The format is cell-based. The note with it: 72 h. How it is done:
(§3) Therefore, we assessed the impact of the BET-degrading FerroTAC AS6 on the viability of BET-sensitive HCT116 cells and HEK293 cells (Figure 6A). […]
(§4) room temperature and protected from light. Thereafter, the membranes were washed with TBS-T three times for 10 min, and protein bands were acquired using a ChemiDoc MP imaging system (Bio-Rad). Band quantification was performed using Image Lab software and reported as ratio of each protein band relative to […]
(§5) Peak elution was monitored using ultraviolet absorbance at 280 nm.
On the technique in general: Cellular ATP, detected with luciferase, serves as a proxy for viable cell number.

A further data set concerns HCT116 cells. The experiment in a line: Cell viability assay (CellTiter-Glo). The format is cell-based. The note with it: Homo sapiens, HCT-116, 72 h; read-out: IC50 ± S.D. HCT116. How it is done: as §3, §4, §5
Another data set in a line: Plasma stability assay. Type of data set: in vitro ADME. Conditions: mouse plasma; read-out: stability T1/2 in mouse plasma. How it is done:
Frozen plasma was thawed at 37 °C and centrifuged at 3000 rpm for 8 min to remove clots, and the supernatant was used in the experiment. The pH of the plasma was recorded, and only the pH range between 7.4 and 8 was used. The plasma and compound solution were prewarmed to 37 °C. 10 µL of prewarmed testing compound or reference compound (procaine) solution (20 μM in 0.05 mM sodium phosphate buffer (pH 7.4) with 0.5% BSA) was mixed with 90 μL of plasma at different time points to allow for 5, 15, 30, 45, and 60 min of incubation time. For 0 min, the plasma was mixed with vehicle only. Acetonitrile was added to the compound and plasma mixture to quench the reaction, and the resulting mixture was centrifuged (5594g for 15 min). The

Data set [4] in a line: Mouse liver microsome stability. Type of data set: in vitro ADME. The note with it: liver microsomes. Here is the method: Mouse Liver Microsome Stability
Testing compound (1.5 μL) or reference compound (500 μM in 5% iPrOH and 95% acetonitrile) was mixed with 18.75 μL of 20 mg/mL liver microsome (Corning) and 479.75 μL of potassium phosphate buffer (0.1 M potassium phosphate buffer, 1 mM EDTA, pH 7.4). The reaction was started by mixing 30 μL of the above mixture (prewarmed to 37 °C) with 15 μL of 6 mM NADPH stock solution (prewarmed to 37 °C). After incubating for 5, 15, 30, or 45 min, 135 μL of acetonitrile containing internal standard was added to stop the reaction. For 0 min, the compound and microsome mixture were mixed with acetonitrile first before adding NADPH. After quenching, the reaction mixture was centrifuged, and the supernatant was taken and diluted for LC-MS
Background: Microsomes from liver hold many membrane-bound enzymes, among them those of drug oxidation.

The target in a further data set is T1, pVHL30 (Homo sapiens, UniProt P40337).
T1 construct: endogenous in cells; host or cells: HEK293 (ATCC)
T1 sequence (P40337 whole entry): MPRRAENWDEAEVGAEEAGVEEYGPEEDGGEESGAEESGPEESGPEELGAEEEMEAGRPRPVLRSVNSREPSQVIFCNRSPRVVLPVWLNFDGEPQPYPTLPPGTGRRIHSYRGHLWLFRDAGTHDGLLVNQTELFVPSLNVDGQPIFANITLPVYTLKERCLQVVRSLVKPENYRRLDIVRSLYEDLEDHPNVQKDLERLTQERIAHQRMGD
The experiment in a line: Western blot VHL degradation in HEK293 cells. The format is cell-based. Conditions: HEK293, 4 h, 1 μM.

Experimental for pVHL30: To further elucidate the mode of action of FerroTAC AS2, we explored its dependency on ubiquitination and proteasome activity.
A) Representative immunoblots of VHL protein levels after treatment of
HEK293 cells. Cells were treated with 0.1% EtOH, 0.1 μM or 1 μM of the indicated compounds for 4 and 24 h.
Controls were included at 1 μM for 24 h. Mean values of two biologically independent experiments.
Representative time-course immunoblots of VHL protein levels after treatment of HEK293 cells treated with
Cells were treated with 0.1% EtOH and controls at 1 μM. Mean values of two biologically
independent experiments. Apparent half-life values (t 1/2) were estimated by fitting band intensity against time
using a single-phase exponential decay model. C) Representative immunoblots of VHL protein levels in
neddylation inhibitor MLN4924 (3 μM) and VHL inhibitor VH032 (50 μM). The amount of EtOH (0.1%) and
DMSO (0.5%) is fixed in all samples. Band quantification was performed using ImageJ software and reported
(in black and black) as relative amount as ratio of each protein band relative to the lane’s loading control
(tubulin). VHL/tubulin protein ratios were normalised to the average of the controls (100%).
HEK293 and HCT116 cell lines, purchased from ATCC, were cultured in Dulbecco’s modified Eagle’s medium (DMEM, Gibco) supplemented with 10% fetal bovine serum (FBS, Gibco), L-glutamine (2 mM, Gibco) and 100 μg/mL of penicillin/streptomycin (Gibco). All cell lines were maintained in a humidified incubator at 37 °C and 5% CO2 for no more than 30 passages. Cells were routinely tested for mycoplasma contamination.
Cell Treatment for Immunoblotting
depending on the experimental setup. Cells were treated in fresh medium with the indicated compounds under indicated conditions with a final EtOH or iPrOH concentration of 0.01% (v/v) to 0.1% (v/v) depending on the experimental setup. […]
stored at −80°C. Protein concentration was determined by bicinchoninic acid (BCA) assay (Thermo Fisher […]
Quantitative Immunoblotting […]

As usually defined, the logD is lipophilicity at a set pH, counting ionised and neutral species. A lower logD goes with lower lipophilicity. By solubility (kinetic) is commonly meant the concentration staying in solution when a stock, usually in DMSO, is diluted into the medium. The term chromatographic logD denotes lipophilicity estimated from chromatographic retention. A higher chromatographic logD goes with a more lipophilic compound. The term IC50 denotes the concentration needed to halve the response being measured. For orientation: CLint scaled means the rate of metabolic loss divided by the concentration. Higher therefore signals rapid turnover. With `Cc1ncsc1-c1ccc(CNC(=O)C2CC(O)CN2C(=O)C(NC(=O)COCCOCCOCCNC(=O)CC2N=C(c3ccc(Cl)cc3)c3c(sc(C)c3C)-n3c(C)nnc32)C(C)(C)C)cc1` (stereo not shown) [MZ1], the logD in data set [1] was found to be 3.8. Further, the kinetic solubility at 1 h in data set [2] (FeSSIF pH 5.8, read-out: kinetic solubility FeSSIF (pH 5.8)) was determined as 51.1 µM (≈ 51.2 µg/mL); in data set [2] (phosphate buffer, aqueous buffer, PBS pH 7.4, read-out: kinetic solubility PBS (pH 7.4)), 22.4 µM (≈ 22.4 µg/mL). Besides, in data set [3], the chromatographic logD was determined as 4.1. Besides, in the data set on HEK293 cells, the “cytotoxicity in HEK293 cells (in words)” value is “almost no intrinsic cytotoxicity”. In the data set on HCT116 cells, the IC50 was determined as 1330 nM. Moreover, in “Plasma stability assay”, the half-life at 2 µM turned out to be 5.78 h. The same compound gave a CLint scaled at 1 µM in data set [4] (pH 7.4) of 2180 mL/min/kg. Further, the half-life at 1 µM in data set [4] (pH 7.4, read-out: stability T1/2 in mouse microsome) was determined as 2.5 min.

With `Cc1ncsc1-c1ccc([C@H](C)NC(=O)[C@@H]2C[C@@H](O)CN2C(=O)[C@@H](NC(=O)COCCOCCOCCOCCOCCOCC(=O)N[C@H](C(=O)N2C[C@H](O)C[C@H]2C(=O)N[C@@H](C)c2ccc(-c3scnc3C)cc2)C(C)(C)C)C(C)(C)C)cc1` [MeCM11], the “pVHL30 degradation (in words)” value at pVHL30 is on record as “failed to induce significant degradation”.

(Values after publication PMC12022980, “Rational Design of PROTAC Linkers Featuring Ferrocene as a Molecular Hinge to Enable Dynamic Conformational Changes” (Journal of the American Chemical Society, 2025).)
